Data: US20120015988A1, “Sulfone Compounds Which Modulate The CB2 Receptor” (BOEHRINGER INGELHEIM INTERNATIONAL GMBH, priority 2008, published 2012)

biological target: T1, human CB2R (Homo sapiens, UniProt P34972); assay: CB2R mediated modulation of cAMP synthesis; type: cell-based; conditions: CHO cells expressing human CB2R; concentration at which 50% of the forskolin-stimulated cAMP synthesis was inhibited; 100% defined by 1 uM CP55940; read-out: CB2 EC50
T1 construct: host or cells: CHO cells
Procedure: B. CB2R Mediated Modulation of Camp Synthesis:
Compounds of the invention were evaluated for their CB2 agonist or inverse agonistic activity in accordance with the following experimental method.
CHO cells expressing human CB2R (Euroscreen) were plated at a density of 5000 cells per well in 384 well plates and incubated overnight at 37° C. After removing the media, the cells were treated with test compounds diluted in stimulation buffer containing 1 mM IBMX, 0.25% BSA and 10 uM Forskolin. The assay was incubated for 30 minutes at 37° C. Cells were lysed and the cAMP concentration was measured using DiscoverX-XS cAMP kit, following the manufacturer's protocol. In this setting, agonists will decrease forskolin induced production of cAMP while inverse agonists will further increase forskolin induced production of cAMP. EC50 of agonists were calculated as follows. The maximal amount of cAMP produced by forskolin compared to the level of cAMP inhibited by 1 uM CP55940 is defined as 100%. The EC50 value of each test compound was determined as the concentration at which 50% of the forskolin-stimulated cAMP synthesis was inhibited. Data was analyzed using a four-parameter logistic model. (Model 205 of XLfit 4.0).

T1 sequence (P34972 whole entry): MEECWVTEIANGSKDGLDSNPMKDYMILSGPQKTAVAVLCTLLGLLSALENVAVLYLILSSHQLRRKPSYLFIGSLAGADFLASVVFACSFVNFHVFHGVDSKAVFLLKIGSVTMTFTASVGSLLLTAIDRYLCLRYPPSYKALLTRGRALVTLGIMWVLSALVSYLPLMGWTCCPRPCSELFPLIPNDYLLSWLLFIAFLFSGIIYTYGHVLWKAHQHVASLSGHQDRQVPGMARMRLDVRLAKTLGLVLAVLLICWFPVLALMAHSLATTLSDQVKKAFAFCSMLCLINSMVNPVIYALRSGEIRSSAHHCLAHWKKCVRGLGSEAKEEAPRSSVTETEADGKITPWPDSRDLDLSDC

Row | Compound | EC50
1 | Cn1nc(C(C)(C)C)cc1-c1coc(C(C)(C)S(=O)(=O)c2ccc(Cl)cc2)n1 [Example 1, 4-(5-tert-butyl-2-methyl-2H-pyrazol-3-yl)-2-[1-(4-chloro-benzenesulfonyl)-1-methyl-ethyl]-oxazole] | 0.92 nM
2 | Cn1nc(C(C)(C)C)cc1-c1coc(C(C)(C)S(=O)(=O)c2ccc(F)cc2)n1 [Example 2, 4-(5-tert-butyl-2-methyl-2H-pyrazol-3-yl)-2-[1-(4-fluoro-benzenesulfonyl)-1-methyl-ethyl]-oxazole] | 0.35 nM
3 | Cn1nc(C(C)(C)C)cc1-c1coc(C(C)(C)S(=O)(=O)c2ccc(Cl)cc2F)n1 [Example 3, 4-(5-tert-butyl-2-methyl-2H-pyrazol-3-yl)-2-[1-(4-chloro-2-fluoro-benzenesulfonyl)-1-methyl-ethyl]-oxazole] | 3.9 nM
4 | Cc1ccc(S(=O)(=O)C(C)(C)c2nc(-c3cc(C(C)(C)C)nn3C)co2)cc1 [Example 4, 4-(5-tert-butyl-2-methyl-2H-pyrazol-3-yl)-2-[1-methyl-1-(toluene-4-sulfonyl)-ethyl]-oxazole] | 12 nM
5 | Cn1nc(C(C)(C)C)cc1-c1coc(C(C)(C)S(=O)(=O)CC2CCOCC2)n1 [Example 5, 4-(5-tert-butyl-2-methyl-2H-pyrazol-3-yl)-2-[1-methyl-1-(tetrahydro-pyran-4-ylmethanesulfonyl)-ethyl]-oxazole] | 145 nM
6 | Cn1nc(C(C)(C)C)cc1-c1coc(C(C)(C)S(=O)(=O)C2CCCCC2)n1 [Example 6, 4-(5-tert-butyl-2-methyl-2H-pyrazol-3-yl)-2-(1-cyclohexanesulfonyl-1-methyl-ethyl)-oxazole] | 371 nM
7 | CC(C)(C)c1cc(-c2coc(C(C)(C)S(=O)(=O)c3ccc(Cl)cc3)n2)no1 [Example 7, 5-tert-butyl-3-{2-[1-(4-chloro-benzenesulfonyl)-1-methyl-ethyl]-oxazol-4-yl}-isoxazole] | 0.9 nM
8 | Cn1nc(C(C)(C)C)cc1-c1cnc(C(C)(C)S(=O)(=O)c2ccc(Cl)cc2)o1 [Example 8, 5-(5-tert-butyl-2-methyl-2H-pyrazol-3-yl)-2-[1-(4-chloro-benzenesulfonyl)-1-methyl-ethyl]-oxazole] | 22 nM
9 | Cn1nc(C(C)(C)C)cc1-c1cnc(C(C)(C)S(=O)(=O)c2ccc(F)cc2)o1 [Example 9, 5-(5-tert-butyl-2-methyl-2H-pyrazol-3-yl)-2-[1-(4-fluoro-benzenesulfonyl)-1-methyl-ethyl]-oxazole] | 5.8 nM
10 | Cn1nc(C(C)(C)C)cc1-c1nnc(C(C)(C)S(=O)(=O)c2ccc(Cl)cc2)[nH]1 [Example 12, 3-(5-tert-butyl-2-methyl-2H-pyrazol-3-yl)-5-[1-(4-chloro-benzenesulfonyl)-1-methyl-ethyl]-4H-[1,2,4]triazole] | 12 nM
11 | CC(C)(C)c1cc(-c2nnc(C(C)(C)S(=O)(=O)CC3CCOCC3)[nH]2)on1 [Example 14, 3-(3-tert-butyl-isoxazol-5-yl)-5-[1-methyl-1-(tetrahydro-pyran-4-ylmethanesulfonyl)-ethyl]-4H-[1,2,4]triazole] | 159 nM
12 | CC(C)(c1nc(C2CCCCC2)no1)S(=O)(=O)c1ccc(C(F)(F)F)cc1 [Example 16, 3-cyclohexyl-5-[1-methyl-1-(4-trifluoromethyl-benzenesulfonyl)-ethyl]-[1,2,4]oxadiazole] | 12 nM
13 | Cn1nc(C(C)(C)C)cc1-c1nc(C(C)(C)S(=O)(=O)c2ccc(Cl)cc2)no1 [Example 18, 5-(5-tert-butyl-2-methyl-2H-pyrazol-3-yl)-3-[1-(4-chloro-benzenesulfonyl)-1-methyl-ethyl]-[1,2,4]oxadiazole] | 2.7 nM
14 | Cn1nc(C(C)(C)C)cc1-c1nc(C(C)(C)S(=O)(=O)CC2CCOCC2)no1 [Example 19, 5-(5-tert-butyl-2-methyl-2H-pyrazol-3-yl)-3-[1-methyl-1-(tetrahydro-pyran-4-ylmethanesulfonyl)-ethyl]-[1,2,4]oxadiazole] | 9.2 nM
15 | CC(C)(C)c1cc(-c2nnc(C(C)(C)S(=O)(=O)c3ccc(Cl)cc3)o2)on1 [Example 22, 2-(3-tert-butyl-isoxazol-5-yl)-5-[1-(4-chloro-benzenesulfonyl)-1-methyl-ethyl]-[1,3,4]oxadiazole] | 5.3 nM
16 | CC(C)(C)c1cc(-c2nnc(C(C)(C)S(=O)(=O)CC3CCOCC3)o2)on1 [Example 24, 2-(3-tert-butyl-isoxazol-5-yl)-5-[1-methyl-1-(tetrahydro-pyran-4-ylmethanesulfonyl)-ethyl]-[1,3,4]oxadiazole] | 48 nM
17 | CC(C)(C)c1cc(-c2nnc(C(C)(C)S(=O)(=O)c3ccc(Cl)cc3)o2)no1 [Example 25, 2-(5-tert-butyl-isoxazol-3-yl)-5-[1-(4-chloro-benzenesulfonyl)-1-methyl-ethyl]-[1,3,4]oxadiazole] | 6.9 nM

Row | Compound | EC50
18 | Cn1nc(C(C)(C)C)cc1-c1nnc(C(C)(C)S(=O)(=O)c2ccc(Cl)cc2)o1 [Example 26, 2-(5-tert-butyl-2-methyl-2H-pyrazol-3-yl)-5-[1-(4-chloro-benzenesulfonyl)-1-methyl-ethyl]-[1,3,4]oxadiazole] | 9 nM
19 | CC(C)(C)c1cc(-c2nnc(C(C)(C)S(=O)(=O)c3ccc(F)cc3)o2)no1 [Example 27, 2-(5-tert-butyl-isoxazol-3-yl)-5-[1-(4-fluoro-benzenesulfonyl)-1-methyl-ethyl]-[1,3,4]oxadiazole] | 35 nM
20 | Cn1nc(C(C)(C)C)cc1-c1nnc(C(C)(C)S(=O)(=O)c2ccc(F)cc2)o1 [Example 28, 2-(5-tert-butyl-2-methyl-2H-pyrazol-3-yl)-5-[1-(4-fluoro-benzenesulfonyl)-1-methyl-ethyl]-[1,3,4]oxadiazole] | 16 nM
21 | CC(C)(C)c1cc(-c2nnc(C(C)(C)S(=O)(=O)C3CCOCC3)o2)on1 [Example 29, 2-(3-tert-butyl-isoxazol-5-yl)-5-[1-methyl-1-(tetrahydro-pyran-4-sulfonyl)-ethyl]-[1,3,4]oxadiazole] | 27 nM
22 | CC(C)(C)c1cc(-c2nnc(C(C)(C)S(=O)(=O)Cc3ccc(F)cc3)o2)on1 [Example 31, 2-(3-tert-butyl-isoxazol-5-yl)-5-[1-(4-fluoro-phenylmethanesulfonyl)-1-methyl-ethyl]-[1,3,4]oxadiazole] | 162 nM
23 | Cn1nc(C(C)(C)C)cc1-c1nnc(C2(S(=O)(=O)c3ccc(Cl)cc3)CC2)o1 [Example 32, 2-(5-tert-butyl-2-methyl-2H-pyrazol-3-yl)-5-[1-(4-chloro-benzenesulfonyl)-cyclopropyl]-[1,3,4]oxadiazole] | 3.7 nM
24 | CC(C)(C)c1cc(-c2noc(C(C)(C)S(=O)(=O)c3ccc(F)cc3)n2)on1 [Example 34, 3-(3-tert-butyl-isoxazol-5-yl)-5-[1-(4-fluoro-benzenesulfonyl)-1-methyl-ethyl]-[1,2,4]oxadiazole] | 1.8 nM
25 | CC(C)(C)c1cc(-c2noc(C(C)(C)S(=O)(=O)c3ccc(C(F)(F)F)cc3)n2)on1 [Example 35, 3-(3-tert-butyl-isoxazol-5-yl)-5-[1-methyl-1-(4-trifluoromethyl-benzenesulfonyl)-ethyl]-[1,2,4]oxadiazole] | 5.9 nM
26 | CC(C)(C)c1cc(-c2noc(C(C)(C)S(=O)(=O)CC3CCOCC3)n2)on1 [Example 36, 3-(3-tert-butyl-isoxazol-5-yl)-5-[1-methyl-1-(tetrahydro-pyran-4-ylmethanesulfonyl)-ethyl]-[1,2,4]oxadiazole] | 15 nM
27 | CC(C)(C)c1cc(-c2nc(C(C)(C)S(=O)(=O)c3ccc(F)cc3)no2)on1 [Example 37, 5-(3-tert-butyl-isoxazol-5-yl)-3-[1-(4-fluoro-benzenesulfonyl)-1-methyl-ethyl]-[1,2,4]oxadiazole] | 1 nM
28 | CC(C)(C)c1cc(-c2nc(C(C)(C)S(=O)(=O)CC3CCOCC3)no2)on1 [Example 38, 5-(3-tert-butyl-isoxazol-5-yl)-3-[1-methyl-1-(tetrahydro-pyran-4-ylmethanesulfonyl)-ethyl]-[1,2,4]oxadiazole] | 210 nM
29 | CC(C)(C)c1cc(-c2nnc(C(C)(C)S(=O)(=O)c3ccc(F)cc3)s2)on1 [Example 39, 2-(3-tert-butyl-isoxazol-5-yl)-5-[1-(4-fluoro-benzenesulfonyl)-1-methyl-ethyl]-[1,3,4]thiadiazole] | 6.7 nM
30 | CC(C)(C)c1cc(-c2nnc(C(C)(C)S(=O)(=O)c3ccc(F)cc3)s2)no1 [Example 40, 2-(5-tert-butyl-isoxazol-3-yl)-5-[1-(4-fluoro-benzenesulfonyl)-1-methyl-ethyl]-[1,3,4]thiadiazole] | 17 nM
31 | Cn1nc(C(C)(C)C)cc1-c1nnc(C(C)(C)S(=O)(=O)c2ccc(F)cc2)s1 [Example 41, 2-(5-tert-butyl-2-methyl-2H-pyrazol-3-yl)-5-[1-(4-fluoro-benzenesulfonyl)-1-methyl-ethyl]-[1,3,4]thiadiazole] | 2.5 nM
32 | Cn1nc(C(C)(C)C)cc1-c1nnc(C(C)(C)S(=O)(=O)C2CCOCC2)s1 [Example 42, 2-(5-tert-butyl-2-methyl-2H-pyrazol-3-yl)-5-[1-methyl-1-(tetrahydro-pyran-4-sulfonyl)-ethyl]-[1,3,4]thiadiazole] | 117 nM
33 | CC(C)(CO)c1cc(-c2nnc(C(C)(C)S(=O)(=O)c3ccc(F)cc3)s2)on1 [Example 43, 2-(5-{5-[1-(4-fluoro-benzenesulfonyl)-1-methyl-ethyl]-[1,3,4]thiadiazol-2-yl}-isoxazol-3-yl)-2-methyl-propan-1-ol] | 175 nM
